According to patent US12649737B2, “Compounds and uses thereof” (Foghorn Therapeutics Inc., priority 2020, dated 2026):
pIC50: −log10 of the molar value.

Key:
[1] = biological target: T1, BRG-1 (Homo sapiens, UniProt P51532); experiment: ATPase catalytic activity assay of BRG-1 (ADP-Glo); assay type: biochemical; conditions: 30 nM BRG-1, 400 μM ATP, 20 nM salmon sperm DNA, 1 hour at room temperature; read-out: BRG1 ATPase: IC50
T1 construct: made in house; host or cells: High Five insect cells
Description: (§1) Example 38. Assay for ATPase Catalytic Activity of BRM and BRG-1
(§2) The ADP-Glo™ kinase assay is performed in two steps once the reaction is complete.

[2] = biological target: T2, BRM (Homo sapiens, UniProt P51531); experiment: ATPase catalytic activity assay of BRM (ADP-Glo); assay type: biochemical; conditions: 30 nM BRM, 400 μM ATP, 20 nM salmon sperm DNA, 1 hour at room temperature
T2 construct: made in house; host or cells: High Five insect cells
Description: as §1, §2

T2 sequence (P51531 whole entry): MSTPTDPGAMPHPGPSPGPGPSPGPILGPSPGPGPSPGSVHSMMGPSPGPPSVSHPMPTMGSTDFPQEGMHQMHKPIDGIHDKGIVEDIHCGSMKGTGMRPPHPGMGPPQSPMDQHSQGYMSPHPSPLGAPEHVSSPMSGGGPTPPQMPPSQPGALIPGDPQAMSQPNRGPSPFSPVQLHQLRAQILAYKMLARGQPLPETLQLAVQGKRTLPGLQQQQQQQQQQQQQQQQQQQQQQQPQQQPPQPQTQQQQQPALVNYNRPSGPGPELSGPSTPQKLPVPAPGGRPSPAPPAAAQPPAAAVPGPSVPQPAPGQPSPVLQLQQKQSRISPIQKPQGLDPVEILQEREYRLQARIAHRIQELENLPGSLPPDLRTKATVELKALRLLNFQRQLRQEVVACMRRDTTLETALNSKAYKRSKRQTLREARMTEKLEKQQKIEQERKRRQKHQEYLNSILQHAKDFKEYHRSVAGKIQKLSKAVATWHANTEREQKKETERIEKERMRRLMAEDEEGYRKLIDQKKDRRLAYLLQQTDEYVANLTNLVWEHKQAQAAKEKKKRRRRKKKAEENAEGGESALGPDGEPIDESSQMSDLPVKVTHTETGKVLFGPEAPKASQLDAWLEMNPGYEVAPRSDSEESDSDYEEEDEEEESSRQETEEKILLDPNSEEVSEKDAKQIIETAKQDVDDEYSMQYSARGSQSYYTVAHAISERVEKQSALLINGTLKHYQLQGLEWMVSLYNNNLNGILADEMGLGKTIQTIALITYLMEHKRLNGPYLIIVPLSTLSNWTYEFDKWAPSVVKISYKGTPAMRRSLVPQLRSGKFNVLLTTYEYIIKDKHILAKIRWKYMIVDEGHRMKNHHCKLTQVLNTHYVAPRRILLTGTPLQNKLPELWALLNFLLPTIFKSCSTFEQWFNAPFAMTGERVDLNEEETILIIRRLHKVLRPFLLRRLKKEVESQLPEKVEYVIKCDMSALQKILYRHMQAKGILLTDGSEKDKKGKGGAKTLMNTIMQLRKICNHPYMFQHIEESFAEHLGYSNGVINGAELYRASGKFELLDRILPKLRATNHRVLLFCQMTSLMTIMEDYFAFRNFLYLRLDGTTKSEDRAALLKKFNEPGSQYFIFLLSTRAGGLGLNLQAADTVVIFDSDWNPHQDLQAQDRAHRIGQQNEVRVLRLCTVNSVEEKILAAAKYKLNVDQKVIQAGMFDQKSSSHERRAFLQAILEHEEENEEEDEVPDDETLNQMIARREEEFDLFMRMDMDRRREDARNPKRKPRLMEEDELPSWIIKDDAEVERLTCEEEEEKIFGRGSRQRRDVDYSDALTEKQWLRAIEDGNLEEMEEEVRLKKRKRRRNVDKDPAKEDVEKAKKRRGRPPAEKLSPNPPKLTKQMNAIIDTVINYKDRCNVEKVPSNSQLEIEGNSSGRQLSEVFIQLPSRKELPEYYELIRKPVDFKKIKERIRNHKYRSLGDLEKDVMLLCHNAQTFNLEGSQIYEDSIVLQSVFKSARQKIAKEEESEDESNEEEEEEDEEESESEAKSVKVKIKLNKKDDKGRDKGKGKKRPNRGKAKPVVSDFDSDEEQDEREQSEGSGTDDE
T1 sequence (P51532 whole entry): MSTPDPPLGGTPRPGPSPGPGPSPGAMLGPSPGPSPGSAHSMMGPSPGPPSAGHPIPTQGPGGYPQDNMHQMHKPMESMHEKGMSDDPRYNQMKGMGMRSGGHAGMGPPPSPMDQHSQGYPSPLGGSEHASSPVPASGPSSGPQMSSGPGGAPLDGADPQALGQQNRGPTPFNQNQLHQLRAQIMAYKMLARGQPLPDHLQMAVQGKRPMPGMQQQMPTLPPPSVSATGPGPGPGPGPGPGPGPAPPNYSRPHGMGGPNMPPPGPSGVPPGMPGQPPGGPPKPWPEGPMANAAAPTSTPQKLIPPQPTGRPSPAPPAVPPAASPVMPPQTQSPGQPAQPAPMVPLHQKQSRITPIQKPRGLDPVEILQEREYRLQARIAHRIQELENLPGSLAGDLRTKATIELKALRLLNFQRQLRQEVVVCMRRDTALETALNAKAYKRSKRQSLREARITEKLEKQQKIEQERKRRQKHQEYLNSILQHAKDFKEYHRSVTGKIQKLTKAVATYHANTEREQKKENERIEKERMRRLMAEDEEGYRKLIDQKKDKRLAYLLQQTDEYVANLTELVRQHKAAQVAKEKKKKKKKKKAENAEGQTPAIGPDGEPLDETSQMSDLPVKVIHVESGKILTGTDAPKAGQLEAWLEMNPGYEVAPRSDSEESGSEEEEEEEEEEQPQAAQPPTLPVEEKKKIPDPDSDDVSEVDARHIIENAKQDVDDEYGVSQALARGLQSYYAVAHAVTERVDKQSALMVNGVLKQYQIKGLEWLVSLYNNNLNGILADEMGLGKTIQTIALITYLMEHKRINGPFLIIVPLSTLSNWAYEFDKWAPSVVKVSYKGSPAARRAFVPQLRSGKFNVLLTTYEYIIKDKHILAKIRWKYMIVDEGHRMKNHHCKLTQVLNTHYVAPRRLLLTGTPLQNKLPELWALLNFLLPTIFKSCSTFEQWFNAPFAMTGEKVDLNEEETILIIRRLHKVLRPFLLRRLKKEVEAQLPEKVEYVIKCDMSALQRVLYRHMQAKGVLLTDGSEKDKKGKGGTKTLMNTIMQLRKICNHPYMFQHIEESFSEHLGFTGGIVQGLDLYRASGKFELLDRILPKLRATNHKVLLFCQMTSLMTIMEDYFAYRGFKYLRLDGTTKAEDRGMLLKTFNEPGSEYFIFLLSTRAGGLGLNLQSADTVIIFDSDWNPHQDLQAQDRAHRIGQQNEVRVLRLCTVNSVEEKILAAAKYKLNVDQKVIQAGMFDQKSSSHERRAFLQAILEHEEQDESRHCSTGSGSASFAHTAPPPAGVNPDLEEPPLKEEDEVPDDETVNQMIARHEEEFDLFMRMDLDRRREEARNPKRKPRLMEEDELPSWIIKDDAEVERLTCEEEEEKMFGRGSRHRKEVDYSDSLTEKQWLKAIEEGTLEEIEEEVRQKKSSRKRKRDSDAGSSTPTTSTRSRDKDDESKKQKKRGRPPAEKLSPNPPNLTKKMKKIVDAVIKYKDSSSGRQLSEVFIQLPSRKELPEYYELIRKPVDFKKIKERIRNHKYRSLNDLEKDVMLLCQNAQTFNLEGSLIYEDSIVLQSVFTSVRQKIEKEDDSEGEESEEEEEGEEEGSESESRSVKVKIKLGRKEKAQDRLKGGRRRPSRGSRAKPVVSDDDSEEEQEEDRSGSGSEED

Compound	pIC50 [1]	pIC50 [2]
Nc1ccc(C(=O)NCc2nc3ccc(-c4cccc(-c5ccncc5)c4)nc3[nH]2)cc1 [Compound 1, 4-amino-N-((5-(3-(pyridin-4-yl)phenyl)-3H-imidazo[4,5-b]pyridin-2-yl)methyl)benzamide]	6.00 to 7.00	6.00 to 7.00
CS(=O)(=O)n1ccc(C(=O)NCc2nc3ccc(-c4cccc(-c5ccncc5)c4)nc3[nH]2)c1 [Compound 2]	7.00 to 8.00	7.00 to 8.00
CC(C)S(=O)(=O)n1ccc(C(=O)NCc2nc3ccc(-c4cccc(-c5ccncc5)c4)nc3[nH]2)c1 [Compound 3]	6.00 to 7.00	7.00 to 8.00
C[C@H](NC(=O)c1ccn(S(C)(=O)=O)c1)c1nc2ccc(-c3cccc(-c4ccncc4)c3)nc2[nH]1 [Compound 4]	7.00 to 8.00	7.00 to 8.00
C[C@@H](NC(=O)c1ccn(S(C)(=O)=O)c1)c1nc2ccc(-c3cccc(-c4ccncc4)c3)nc2[nH]1 [Compound 5]	6.00 to 7.00	6.00 to 7.00
COc1ccc(-c2ccc3nc(CNC(=O)c4ccn(C(C)(C)C)c4)[nH]c3n2)cc1 [Compound 6]	6.00 to 7.00	6.00 to 7.00
CS(=O)(=O)n1ccc(C(=O)NCc2nc3ccc(-c4cccc(N5CCC5)c4)cc3[nH]2)c1 [Compound 7]	6.00 to 7.00	6.00 to 7.00
CS(=O)(=O)n1ccc(C(=O)NCc2nc3ccc(-c4cccc(N5CCC(O)CC5)c4)cc3[nH]2)c1 [Compound 8, N-((6-(3-(4-hydroxypiperidin-1-yl)phenyl)-1H-benzo[d]imidazol-2-yl)methyl)-1-(methylsulfonyl)-1H-pyrrole-3-carboxamide]	6.00 to 7.00	7.00 to 8.00
CS(=O)(=O)n1ccc(C(=O)NCc2nc3ccc(-c4ccc(N5CCC5)cc4)nc3[nH]2)c1 [Compound 9]	7.00 to 8.00	7.00 to 8.00
CS(=O)(=O)n1ccc(C(=O)NCc2nc3ccc(-c4cccc(N5CCC5)c4)nc3[nH]2)c1 [Compound 10]	6.00 to 7.00	7.00 to 8.00
C[C@@H]1CN(c2cccc(-c3ccc4nc(CNC(=O)c5ccn(S(C)(=O)=O)c5)[nH]c4c3)c2)C[C@H](C)O1 [Compound 11]	7.00 to 8.00	7.00 to 8.00
CS(=O)(=O)n1ccc(C(=O)NCc2nc3ccc(-c4cccc(N5CCC(O)CC5)c4)nc3[nH]2)c1 [Compound 12, N-((5-(3-(4-hydroxypiperidin-1-yl)phenyl)-3H-imidazo[4,5-b]pyridin-2-yl)methyl)-1-(methylsulfonyl)-1H-pyrrole-3-carboxamide]	6.00 to 7.00	6.00 to 7.00
C[C@@H]1CN(c2cccc(-c3ccc4nc(CNC(=O)c5ccn(S(C)(=O)=O)c5)[nH]c4n3)c2)C[C@H](C)O1 [Compound 13]	7.00 to 8.00	7.00 to 8.00
C[C@@H]1CN(c2ccc(-c3ccc4nc(CNC(=O)c5ccn(S(C)(=O)=O)c5)[nH]c4n3)cc2)C[C@H](C)O1 [Compound 14]	6.00 to 7.00	6.00 to 7.00
C[C@@H]1CN(c2cccc(-c3ccc4nc(CNC(=O)c5ccn(C(C)(C)C)c5)[nH]c4c3)c2)C[C@H](C)O1 [Compound 15]	6.00 to 7.00	6.00 to 7.00
COc1cccc(-c2ccc3nc(CNC(=O)c4ccn(C(C)(C)C)c4)[nH]c3c2)c1 [Compound 16]	6.00 to 7.00	6.00 to 7.00
COc1cccc(-c2ccc3nc(CNC(=O)c4cc(C)n(S(C)(=O)=O)c4)[nH]c3c2)c1 [Compound 17]	7.00 to 8.00	7.00 to 8.00
C[C@@H]1CN(c2cccc(-c3ccc4nc(CNC(=O)c5ccn(C6(C#N)CC6)c5)[nH]c4n3)c2)C[C@H](C)O1 [Compound 18]	6.00 to 7.00	6.00 to 7.00
C[C@@H]1CN(c2cccc(-c3ccc4nc(CNC(=O)c5ccn(C(C)(C)C)c5)[nH]c4n3)c2)C[C@H](C)O1 [Compound 19]	6.00 to 7.00	6.00 to 7.00
Cn1ccc2ccc(-c3ccc4nc(CNC(=O)c5ccn(C6(C)COC6)c5)[nH]c4c3)cc2c1=O [Compound 20, N-((6-(2-methyl-1-oxo-1,2-dihydroisoquinolin-7-yl)-1H-benzo[d]imidazol-2-yl)methyl)-1-(3-methyloxetan-3-yl)-1H-pyrrole-3-carboxamide]	6.00 to 7.00	6.00 to 7.00
COC(=O)N1CCC[C@@H](c2ccc3nc(CNC(=O)c4ccn(S(C)(=O)=O)c4)[nH]c3c2)C1 [Compound 21, (S)-methyl 3-(2-((1-(methylsulfonyl)-1H-pyrrole-3-carboxamido)methyl)-1H-benzo[d]imidazol-6-yl)piperidine-1-carboxylate]	6.00 to 7.00	6.00 to 7.00
COC(=O)N1CCC[C@H](c2ccc3nc(CNC(=O)c4ccn(S(C)(=O)=O)c4)[nH]c3c2)C1 [Compound 22, (R)-methyl 3-(2-((1-(methylsulfonyl)-1H-pyrrole-3-carboxamido)methyl)-1H-benzo[d]imidazol-6-yl)piperidine-1-carboxylate]	< 6.00	6.00 to 7.00
CS(=O)(=O)n1ccc(C(=O)NCc2nc3ccc(N4CCCC(C5CCC5)C4)nc3[nH]2)c1 (stereo not shown) [Compound 23]	6.00 to 7.00	6.00 to 7.00
CC(C)S(=O)(=O)n1ccc(C(=O)NCc2nc3ccc(-c4ccc5ccn(C)c(=O)c5c4)cc3[nH]2)c1 [Compound 24]	6.00 to 7.00	6.00 to 7.00
COC(=O)N1CCC[C@@H](c2ccc3nc(CNC(=O)c4ccn(S(C)(=O)=O)c4)[nH]c3n2)C1 [Compound 25]	6.00 to 7.00	6.00 to 7.00
COC(=O)N1CCC[C@H](c2ccc3nc(CNC(=O)c4ccn(S(C)(=O)=O)c4)[nH]c3n2)C1 [Compound 26]	< 6.00	6.00 to 7.00
CS(=O)(=O)n1ccc(C(=O)NCc2nc3ccc(-c4ccccc4)cc3[nH]2)c1 [Compound 27]	6.00 to 7.00	6.00 to 7.00

Compound	pIC50 [1]	pIC50 [2]
CS(=O)(=O)n1ccc(C(=O)NCc2nc3ccc(-c4ccc(OC(F)(F)F)cc4)nc3[nH]2)c1 [Compound 28]	7.00 to 8.00	7.00 to 8.00
CS(=O)(=O)n1ccc(C(=O)NCc2nc3ccc(-c4cccc(OC(F)(F)F)c4)nc3[nH]2)c1 [Compound 29]	6.00 to 7.00	6.00 to 7.00
CC(C)(C)n1ccc(C(=O)NCc2nc3ccc(-c4cc(Cl)cc(C#N)c4)cc3[nH]2)c1 [Compound 30]	6.00 to 7.00	7.00 to 8.00
CN1Cc2ccc(-c3ccc4nc(CNC(=O)c5ccn(C(C)(C)C)c5)[nH]c4c3)cc2C1=O [Compound 31]	7.00 to 8.00	7.00 to 8.00
Cn1ccc2cc(-c3ccc4nc(CNC(=O)c5ccn(C(C)(C)C)c5)[nH]c4c3)ccc21 [Compound 32]	7.00 to 8.00	7.00 to 8.00
Cn1cc2ccc(-c3ccc4nc(CNC(=O)c5ccn(C(C)(C)C)c5)[nH]c4c3)cc2n1 [Compound 33]	7.00 to 8.00	7.00 to 8.00
CC(C)(C)n1ccc(C(=O)NCc2nc3ccc(-c4ccc5ncccc5c4)cc3[nH]2)c1 [Compound 34]	7.00 to 8.00	7.00 to 8.00
COc1ccc(-c2ccc3nc(CNC(=O)c4ccn(C(C)(C)C)c4)[nH]c3c2)cc1Cl [Compound 35]	6.00 to 7.00	7.00 to 8.00
Cn1ncc2ccc(-c3ccc4nc(CNC(=O)c5ccn(C(C)(C)C)c5)[nH]c4c3)cc21 [Compound 36]	6.00 to 7.00	6.00 to 7.00
CC(C)(C)n1ccc(C(=O)NCc2nc3ccc(-c4ccc(C5CC5)cc4)cc3[nH]2)c1 [Compound 37]	6.00 to 7.00	6.00 to 7.00
CC(C)(C)n1ccc(C(=O)NCc2nc3ccc(-c4cncc5ccccc45)cc3[nH]2)c1 [Compound 38]	6.00 to 7.00	6.00 to 7.00
CC(C)(C)n1ccc(C(=O)NCc2nc3ccc(-c4cccc(C#N)c4)cc3[nH]2)c1 [Compound 39]	6.00 to 7.00	6.00 to 7.00
CC(C)(C)n1ccc(C(=O)NCc2nc3ccc(-c4ccc5c(c4)CCO5)cc3[nH]2)c1 [Compound 40]	6.00 to 7.00	6.00 to 7.00
CC(C)(C)n1ccc(C(=O)NCc2nc3ccc(-c4ccc5cnccc5c4)cc3[nH]2)c1 [Compound 41]	7.00 to 8.00	7.00 to 8.00
CC(C)(C)n1ccc(C(=O)NCc2nc3ccc(-c4ccc5scnc5c4)cc3[nH]2)c1 [Compound 42]	7.00 to 8.00	7.00 to 8.00
CC(C)(C)n1ccc(C(=O)NCc2nc3ccc(-c4ccc(C#N)cc4)cc3[nH]2)c1 [Compound 43]	6.00 to 7.00	6.00 to 7.00
COc1ccc2cc(-c3ccc4nc(CNC(=O)c5ccn(C(C)(C)C)c5)[nH]c4c3)ccc2c1 [Compound 44]	7.00 to 8.00	7.00 to 8.00
CC(C)(C)n1ccc(C(=O)NCc2nc3ccc(-c4ccc5c(c4)OCC5)cc3[nH]2)c1 [Compound 45]	6.00 to 7.00	7.00 to 8.00
CC(C)(C)OCc1cccc(-c2ccc3nc(CNC(=O)c4ccn(C(C)(C)C)c4)[nH]c3c2)c1 [Compound 46]	6.00 to 7.00	7.00 to 8.00
CC(C)(C)n1ccc(C(=O)NCc2nc3ccc(-c4cnn5ccccc45)cc3[nH]2)c1 [Compound 47]	7.00 to 8.00	7.00 to 8.00
Cn1ncc2c(-c3ccc4nc(CNC(=O)c5ccn(C(C)(C)C)c5)[nH]c4c3)cccc21 [Compound 48]	7.00 to 8.00	7.00 to 8.00
Cc1nn(C)c2ccc(-c3ccc4nc(CNC(=O)c5ccn(C(C)(C)C)c5)[nH]c4c3)cc12 [Compound 49]	7.00 to 8.00	7.00 to 8.00
Cc1nc2cc(-c3ccc4nc(CNC(=O)c5ccn(C(C)(C)C)c5)[nH]c4c3)ccc2s1 [Compound 50]	6.00 to 7.00	7.00 to 8.00
CC(C)(C)n1ccc(C(=O)NCc2nc3ccc(-c4cccc5ccncc45)cc3[nH]2)c1 [Compound 51]	6.00 to 7.00	7.00 to 8.00
Cc1ccc2ccc(-c3ccc4nc(CNC(=O)c5ccn(C(C)(C)C)c5)[nH]c4c3)cc2n1 [Compound 52]	7.00 to 8.00	7.00 to 8.00
CC(C)(C)n1ccc(C(=O)NCc2nc3ccc(-c4ccc(CC#N)cc4)cc3[nH]2)c1 [Compound 53]	6.00 to 7.00	6.00 to 7.00
